Experimental data taken from article PMC6882365, “Directed evolution of the PcaV allosteric transcription factor to generate a biosensor for aromatic aldehydes” (Journal of Biological Engineering, 2019).
Positions count from the first letter of the chain named.

Key:
Van2 (PcaV mutant) [1] = target: T1, Van2 (PcaV mutant) (Streptomyces coelicolor, UniProt Q9XAM6, I110V/M113S/N114A); assay: cell-based; details: read-out: E. coli RARE eGFP derepression reporter, 2.5 mM
T1 construct: gene SCO6704

PcaV [2] = target: T2, PcaV (Streptomyces coelicolor, UniProt Q9XAM6); assay: E. coli PcaV/PPV-eGFP derepression reporter, dose response; assay type: cell-based
T2 construct: gene SCO6704

Van2 (PcaV mutant) [3] = target: T3, Van2 (PcaV mutant) (Streptomyces coelicolor, UniProt Q9XAM6, I110V/M113S/N114A); assay: EMSA titration ([…]), disruption of the Van2-PV DNA complex; no response in cells; assay type: biochemical
T3 construct: gene SCO6704; His-TEV tag-cleaved purified protein, homodimer
T3 sequence (Q9XAM6 1-154 I110V/M113S/N114A): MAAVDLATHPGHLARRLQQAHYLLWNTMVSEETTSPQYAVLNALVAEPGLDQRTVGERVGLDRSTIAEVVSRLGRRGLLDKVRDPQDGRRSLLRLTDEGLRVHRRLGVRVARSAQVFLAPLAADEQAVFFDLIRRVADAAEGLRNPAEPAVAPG

PcaV N114A = target: T4, PcaV N114A (Streptomyces coelicolor, UniProt Q9XAM6, N114A); assay: cell-based; details: read-out: Max/Min (2.5 mM induction) / PCA
T4 construct: gene SCO6704

PcaV I110V = target: T5, PcaV I110V (Streptomyces coelicolor, UniProt Q9XAM6, I110V); assay: cell-based; details: read-out: Max/Min (2.5 mM induction) / PCA
T5 construct: gene SCO6704

[4] = target: PcaV allosteric transcription factor from Streptomyces coelicolor (Streptomyces coelicolor); assay: SEC-MALS; 0.75 mL at 1.5 mg/mL loaded on Superdex 10/300 GL; in the absence of the effector
[5] = target: Van2 aTF (PcaV I110V M113S N114A) (Streptomyces coelicolor); assay: as above
Van2 [6] = target: T6, Van2 (Streptomyces coelicolor, UniProt Q9XAM6 1-154, I110V;M113S;N114A); assay: EMSA; no effector; 500 nM protein, 500 pM probe; SPR: 10 mM Hepes, 150 mM NaCl, pH 7.4 (temperature not stated); EMSA: 50 mM Tris-HCl, 50 mM KCl, 5 mM MgCl2, 1 mM EDTA, 5% glycerol, 0.1 ug poly(dI-dC), 1 mM DTT, 30 C 20 min (+30 min with ligand); details: protein: recombinant; tags: N-terminal His-TEV, removed by TEV protease; chain copies: 2; label: 5' IRD700 on both strands; blunt
T6 sequence: T3 sequence (Q9XAM6 1-154 I110V/M113S/N114A)

Van2 [7] = target: T6, Van2; assay: SPR; no effector; 9.4-600 nM protein; SPR: 10 mM Hepes, 150 mM NaCl, pH 7.4 (temperature not stated); EMSA: 50 mM Tris-HCl, 50 mM KCl, 5 mM MgCl2, 1 mM EDTA, 5% glycerol, 0.1 ug poly(dI-dC), 1 mM DTT, 30 C 20 min (+30 min with ligand); details: protein: recombinant; tags: N-terminal His-TEV, removed by TEV protease; chain copies: 2; label: 5' biotin on strand 1; blunt
PcaV [8] = target: T7, PcaV (Streptomyces coelicolor, UniProt Q9XAM6 1-154); assay: EMSA; no effector; 250 nM protein, 500 pM probe; SPR: 10 mM Hepes, 150 mM NaCl, pH 7.4 (temperature not stated); EMSA: 50 mM Tris-HCl, 50 mM KCl, 5 mM MgCl2, 1 mM EDTA, 5% glycerol, 0.1 ug poly(dI-dC), 1 mM DTT, 30 C 20 min (+30 min with ligand); details: protein: recombinant; tags: N-terminal His-TEV, removed by TEV protease; chain copies: 2; label: 5' IRD700 on both strands; blunt
T7 sequence: T3 sequence (Q9XAM6 1-154 I110V/M113S/N114A) with V110I, S113M, A114N

## O=Cc1ccccc1O [2-hydroxybenzaldehyde]
Van2 (PcaV mutant) [1]
  fold induction at 2500 µM: > 6

## O=Cc1ccc(O)c(O)c1 [3,4-dihydroxybenzaldehyde]
Van2 (PcaV mutant) [1]
  fold induction at 2500 µM: > 6

## O=C(O)c1cccc(O)c1 [3HB, 3-hydroxybenzoic acid]
PcaV [2]
  E. coli PcaV/PPV-eGFP derepression reporter, dose response: 3-hydroxybenzoic acid (3HB) and 4-hydroxybenzoic acid (4HB), as observed by fitting the dose response curves

## Cc1cc(C=O)ccc1O [4-hydroxy-3-methylbenzaldehyde]
Van2 (PcaV mutant) [1]
  fold induction at 2500 µM: > 6

## O=C(O)c1ccc(O)cc1 [4HB, 4-hydroxybenzoic acid]
PcaV [2]
  E. coli PcaV/PPV-eGFP derepression reporter, dose response: 3-hydroxybenzoic acid (3HB) and 4-hydroxybenzoic acid (4HB), as observed by fitting the dose response curves

## O=C(O)c1ccc(O)c(O)c1 [PCA, 3,4-dihydroxybenzoic acid]
Van2 (PcaV mutant) [3]
  EMSA titration (2.5-12.5 mM), disruption of the Van2-PV DNA complex; no response: Van2 responds to vanillin but is still responsive to PCA in contradiction with the observed in vivo biosensor performance
PcaV N114A
  fold induction at 2500 µM: 18
PcaV I110V
  fold induction at 2500 µM: 304

## PcaV allosteric transcription factor from Streptomyces coelicolor (natural protein)
[4]
  stoichiometry N: 2

## Van2 aTF (PcaV I110V M113S N114A)
[5]
  stoichiometry N: 2

B1: Rnd Probe (IR700 duplex) (dsDNA)
DNA 1: GAGTTAGAGTACGCGTTAAACACTTCACAGAT
DNA 2: ATCTGTGAAGTGTTTAACGCGTACTCTAACTC
Van2 [6]
  binding result: no binding

B2: PV Probe Bio (dsDNA)
DNA 1: TTGACTATACTCAGTGCCCTGACTATGATACT
DNA 2: AGTATCATAGTCAGGGCACTGAGTATAGTCAA
Van2 [7]
  Kd: 86.7 nM

B3: PV Probe (IR700 duplex) (dsDNA)
DNA 1: B2 DNA 1
DNA 2: B2 DNA 2
PcaV [8]
  binding result: binds
